Assay results as given in patent publication US12622910B2, “Inhibitors of Bruton's tyrosine kinase and methods of their use” (Janssen Pharmaceutica NV, priority 2021, dated 2026).

Assay: Phase 1 first-in-human study, safety (TEAEs)
Assay type: in vivo
Source text: Study Participants—Volunteers aged 18-58 years, with a body mass index (BMI) of 18-30 kg/m^2, body weight ≥50 kg, and who were considered healthy based on medical history, physical examination, clinical laboratory evaluation, and 12-lead electrocardiogram (ECG) were enrolled in this study. Females were required to be surgically sterile or postmenopausal. Key exclusion criteria were history of, or current, clinically significant medical illness and history of malignancy within 5 years.
Study Design—This phase 1, randomized, double-blind, placebo-controlled, single-center study (NCT03607513; EudraCT 2018-000428-32) was conducted between July 2018 and August 2019 at the Janssen Clinical Pharmacology Unit in Merksem, Belgium.The study comprised two distinct parts; Part 1 examined SAD of compound of Formula (III) and Part 2 assessed MAD of compound of Formula (III).
Safety, tolerability, PK, and BTKO were assessed for six doses of compound of Formula (III) oral solution (4, 12, 36, 100, 200, 400 mg) in participants under fasted conditions. The SAD part comprised 10 cohorts of 8 participants each (FIG. 1). In each cohort receiving compound of Formula (III) oral solution (Cohorts 1-9), 6 participants were randomized to receive compound of Formula (III) and 2 to receive placebo. All participants in Cohort 10 received compound of Formula (III) as an oral capsule. All 10 cohorts included 2 sentinel participants who were dosed ˜24 hours prior to the rest of the cohort. In cohorts receiving compound of Formula (III) oral solution, 1 sentinel participant received compound of Formula (III) and the other received placebo.
Six male escalating dose cohorts received a single oral dose of 4, 12, 36, 100, 200, 400 mg compound of Formula (III) or placebo solution under fasted conditions. Gender effects were assessed in 2 female cohorts whose participants received either a 36 or 100 mg dose of compound of Formula (III) or placebo as an oral solution under fasted conditions. Food effects were evaluated in a male cohort receiving compound of Formula (III) 100 mg or placebo as an oral solution after a high-fat breakfast.
Safety, tolerability, and PK of a solid dose formulation of compound of Formula (III) were assessed in an additional male cohort (Cohort 10) that received 3×35 mg (105 mg) of compound of Formula (III) in the fasted state. Since all the participants received the same dose of compound of Formula (III), this cohort was not blinded.
Safety, tolerability, PK, and BTKO following multiple compound of Formula (III) doses were evaluated in 3 dose escalation cohorts with a total of 18 participants (males: 9, females: 9) receiving active study drug. In each cohort, 3 males and 3 females were randomized to receive 36 mg once-daily (QD), 100 mg QD, or 200 mg QD compound of Formula (III) oral solution and 3 participants (males: 2; female: 1) to receive placebo. Two male participants in each cohort served as sentinel participants: one received compound of Formula (III) and other received placebo ˜48 hours prior to other participants in the cohort. All safety and tolerability data (through the follow-up visit), PK data (through at least 24 hours after last dose administration), and all available PD data were reviewed from each cohort before a decision was made to dose escalate.
Safety—Safety evaluations were based upon the type, incidence, and severity of treatment-emergent adverse events (TEAEs) reported throughout the study, and concomitant medication reporting, clinical laboratory tests, physical examinations, vital sign measurements, and ECGs assessed at pre-defined time points. The TEAEs and serious TEAEs were coded using the Medical Dictionary for Regulatory Activities (MedDRA Version 21.0) and summarized by system-organ class (SOC) and preferred terms.

C=CC(=O)N[C@H]1CCC[C@H]1NC(=O)c1sc2nccc3c2c1NC(=O)N3c1cnc(CC(C)C)cc1C (atropisomer, axis not shown) [compound of Formula (III), N-((1R,2S)-2-Acrylamidocyclopentyl)-5-(S)-(6-isobutyl-4-methylpyridin-3-yl)-4-oxo-4,5-dihydro-3H-1-thia-3,5,8-triazaacenaphthylene-2-carboxamide]
Nasopharyngitis, n (%) (Part 2, 100 mg): 0 | Nausea, n (%) (Part 2, 100 mg): 0 | Oral dysaesthesia, n (%) (Part 2, 100 mg): 0 | Oropharyngeal pain, n (%) (Part 2, 100 mg): 0 | Paresthesia, n (%) (Part 2, 100 mg): 0 | Patients with ≥1 TEAEs, n (%) (Part 2, 100 mg): 5 (83.3) | Regurgitation, n (%) (Part 2, 100 mg): 0 | Skin irritation, n (%) (Part 2, 100 mg): 0 | Skin reaction, n (%) (Part 2, 100 mg): 0 | Somnolence, n (%) (Part 2, 100 mg): 1 (16.7) | Vertigo, n (%) (Part 2, 100 mg): 0 | Vessel puncture site hematoma, n (%) (Part 2, 100 mg): 1 (16.7) | Vision blurred, n (%) (Part 2, 100 mg): 0 | Abdominal discomfort, n (%) (Part 2, 200 mg): 0 | Abdominal pain, n (%) (Part 2, 200 mg): 1 (16.7) | Abnormal dreams, n (%) (Part 2, 200 mg): 0 | Administration site irritation, n (%) (Part 2, 200 mg): 0 | Back pain, n (%) (Part 2, 200 mg): 0 | Cough, n (%) (Part 2, 200 mg): 0 | Dehydration, n (%) (Part 2, 200 mg): 0 | Diarrhea, n (%) (Part 2, 200 mg): 0 | Dizziness, n (%) (Part 2, 200 mg): 1 (16.7) | Dysgeusia, n (%) (Part 2, 200 mg): 0 | Fatigue, n (%) (Part 2, 200 mg): 1 (16.7) | Flatulence, n (%) (Part 2, 200 mg): 0 | Headache, n (%) (Part 2, 200 mg): 1 (16.7) | Hot flush, n (%) (Part 2, 200 mg): 1 (16.7) | Increased bronchial secretion, n (%) (Part 2, 200 mg): 0 | Injection site hematoma, n (%) (Part 2, 200 mg): 0 | Injection site reaction, n (%) (Part 2, 200 mg): 0 | Lipase increased, n (%) (Part 2, 200 mg): 0 | Myalgia, n (%) (Part 2, 200 mg): 0 | Nasopharyngitis, n (%) (Part 2, 200 mg): 0 | Nausea, n (%) (Part 2, 200 mg): 0 | Oral dysaesthesia, n (%) (Part 2, 200 mg): 0 | Oropharyngeal pain, n (%) (Part 2, 200 mg): 0 | Paresthesia, n (%) (Part 2, 200 mg): 0 | Patients with ≥1 TEAEs, n (%) (Part 2, 200 mg): 5 (83.3) | Regurgitation, n (%) (Part 2, 200 mg): 1 (16.7) | Skin irritation, n (%) (Part 2, 200 mg): 0 | Skin reaction, n (%) (Part 2, 200 mg): 1 (16.7) | Somnolence, n (%) (Part 2, 200 mg): 0 | Vertigo, n (%) (Part 2, 200 mg): 0 | Vessel puncture site hematoma, n (%) (Part 2, 200 mg): 0 | Vision blurred, n (%) (Part 2, 200 mg): 1 (16.7) | participants discontinued due to a TEAE (mild transaminases increased) (Part 2, 200 mg group, after 8 days): 1 | abdominal discomfort, back pain, hot flush, paresthesia, regurgitation, skin reaction: incidence of each (Part 2, all treated [2/18]): 11.1% | administration site irritation, incidence (Part 2, all treated [3/18]): 16.7% | Abdominal discomfort, n (%) (Part 2, total N = 18): 2 (11.1) | Abdominal pain, n (%) (Part 2, total N = 18): 1 (5.6) | Abnormal dreams, n (%) (Part 2, total N = 18): 0 | Administration site irritation, n (%) (Part 2, total N = 18): 3 (16.7) | Back pain, n (%) (Part 2, total N = 18): 1 (16.7) | Cough, n (%) (Part 2, total N = 18): 0 | Dehydration, n (%) (Part 2, total N = 18): 0 | Diarrhea, n (%) (Part 2, total N = 18): 1 (5.6) | Dizziness, n (%) (Part 2, total N = 18): 1 (5.6) | Dysgeusia, n (%) (Part 2, total N = 18): 0 | Fatigue, n (%) (Part 2, total N = 18): 1 (5.6) | Flatulence, n (%) (Part 2, total N = 18): 1 (5.6) | Headache, n (%) (Part 2, total N = 18): 1 (5.6) | Hot flush, n (%) (Part 2, total N = 18): 2 (11.1) | Increased bronchial secretion, n (%) (Part 2, total N = 18): 0 | Injection site hematoma, n (%) (Part 2, total N = 18): 2 (11.1) | Injection site reaction, n (%) (Part 2, total N = 18): 2 (11.1) | Lipase increased, n (%) (Part 2, total N = 18): 0 | Myalgia, n (%) (Part 2, total N = 18): 0 | Nasopharyngitis, n (%) (Part 2, total N = 18): 0 | Nausea, n (%) (Part 2, total N = 18): 0 | Oropharyngeal pain, n (%) (Part 2, total N = 18): 0 | Paresthesia, n (%) (Part 2, total N = 18): 2 (11.1) | Regurgitation, n (%) (Part 2, total N = 18): 2 (11.1) | Skin irritation, n (%) (Part 2, total N = 18): 0 | Skin reaction, n (%) (Part 2, total N = 18): 2 (11.1) | Somnolence, n (%) (Part 2, total N = 18): 1 (5.6) | Vertigo, n (%) (Part 2, total N = 18): 0 | Vessel puncture site hematoma, n (%) (Part 2, total N = 18): 1 (5.6) | Vision blurred, n (%) (Part 2, total N = 18): 1 (5.6) | serious TEAEs (Parts 1 and 2): No serious TEAEs | severity of TEAEs (Parts 1 and 2): mild to moderate
